Among the test systems are Escherichia coli UB1005; Escherichia coli MG1655; Escherichia coli K88; Escherichia coli K99; Escherichia coli 078; Candida albicans.
What all share (test): ≥ marks a high value that may be exact or a test limit, other limits are often not marked, values filed in µg/mL are converted to µM
Assay [1] deals with Bacillus subtilis CMCC 63501.
The subject of assay [2] is Staphylococcus epidermidis ATCC 12228.
The test system of assay [3] is Salmonella enterica subsp. enterica serovar Typhimurium ATCC 14028.
In assay [4] the test system is Staphylococcus aureus ATCC 29213.
Assay [5] concerns Pseudomonas aeruginosa ATCC 27853.
Assay [6] has as its system Salmonella typhimurium ATCC 7731.
The test system of assay [7] is Escherichia coli ATCC 8739.
Assay [8] deals with Staphylococcus aureus ATCC 25923.
The test system of assay [9] is Salmonella enterica subsp. enterica serovar Pullorum ATCC 7913.
Assay [10] concerns Candida parapsilosis CGMCC 2.3989.
Assay [11] has as its system Candida tropicalis CGMCC 2.1975.
In assay [12] the test system is Staphylococcus aureus ATCC 43300.
The test system of assay [13] is Salmonella enterica subsp. enterica serovar Typhimurium C77-31.
Assay [14] relates to Candida albicans ATCC 90028.
Assay [15] concerns Bacillus subtilis ATCC 6633.
The test system of assay [16] is Staphylococcus aureus ATCC 6538.
Assay [17] concerns Pseudomonas aeruginosa PAO1.
Assay [18] has as its system Cryptococcus neoformans ATCC 208821.
Assay [19] concerns Acinetobacter baumannii ATCC 19606.
Assay [20] has as its system Klebsiella pneumoniae ATCC 700603.
Assay [21] has as its system Escherichia coli ATCC 25922.

In brackets after ≈: the same amount, converted by molar mass. Several values for one entry are separate records, joined by “and”; a condition that tells them apart may be missing. Identical values can stand only once. Bounds are passed on as bounds.

The MIC is the smallest concentration in the dilution series that meets the test's criterion for growth inhibition. High values mean a less susceptible organism, low ones a more susceptible organism. In the case of `CC[C@H](C)[C@H](NC(=O)[C@H](C)NC(=O)[C@H](CCCCN)NC(=O)[C@H](Cc1ccc(O)cc1)NC(=O)[C@H](CC(C)C)NC(=O)[C@H](C)NC(=O)[C@@H](NC(=O)[C@@H](NC(=O)[C@H](CC(N)=O)NC(=O)[C@@H](NC(=O)[C@H](C)NC(=O)[C@@H](NC(=O)[C@@H]1CCCN1C(=O)[C@@H](NC(=O)[C@H](CC(C)C)NC(=O)[C@@H]1CCCN1C(=O)[C@H](Cc1c[nH]c2ccccc12)NC(=O)[C@H](Cc1ccccc1)NC(=O)[C@H](CCCN=C(N)N)NC(=O)[C@@H](N)CCCCN)C(C)C)C(C)C)[C@@H](C)CC)[C@@H](C)O)C(C)C)C(=O)N[C@@H](CCCN=C(N)N)C(=O)N[C@@H](CCCN=C(N)N)C(=O)N[C@@H](CCCCN)C(N)=O` [KRFWPLVPVAINTVALYKAIRRK], the MIC in assay [1] is 4 µM (≈ 11 µg/mL); in [2] it was 4 µM (≈ 11 µg/mL); in assay [3], 4 µM (≈ 11 µg/mL); in assay [4] it was 4 µM (≈ 11 µg/mL); in [5], 4 µM and > 2 µM; in [6] it was 2 µM (≈ 5.48 µg/mL). In the assay with Escherichia coli UB1005, this compound returned a minimal inhibitory concentration (MIC) of 4 µM (≈ 11 µg/mL).

Consider `CC[C@H](C)[C@H](NC(=O)[C@H](CCCCN)NC(=O)CNC(=O)[C@H](CC(C)C)NC(=O)[C@H](Cc1ccccc1)NC(=O)[C@H](CCC(N)=O)NC(=O)[C@H](Cc1ccccc1)NC(=O)[C@@H](N)C(C)C)C(=O)N[C@H](C(=O)N[C@@H](Cc1cnc[nH]1)C(=O)N[C@@H](Cc1cnc[nH]1)C(=O)N[C@H](C(=O)NCC(=O)N[C@@H](CC(N)=O)C(=O)N[C@@H](Cc1ccccc1)C(=O)N[C@H](C(=O)N[C@@H](C)C(=O)NCC(=O)N[C@@H](Cc1ccccc1)C(=O)N[C@@H](CO)C(=O)N[C@@H](C)C(=O)N[C@H](C(=O)N[C@@H](Cc1ccccc1)C(N)=O)C(C)C)C(C)C)C(C)C)[C@@H](C)CC` [VFQFLGKIIHHVGNFVAGFSAVF], for which the MIC in the assay with Escherichia coli MG1655 was no less than 128 µM.

As for `CC[C@H](C)[C@H](NC(=O)[C@H](CCCCN)NC(=O)[C@H](CC(=O)O)NC(=O)[C@H](CC(C)C)NC(=O)[C@@H](NC(=O)[C@H](CCCN=C(N)N)NC(=O)[C@H](CC(C)C)NC(=O)[C@H](CC(C)C)NC(=O)[C@H](CC(C)C)NC(=O)[C@H](CCCCN)NC(=O)[C@H](CC(N)=O)NC(=O)[C@@H](NC(=O)[C@H](CCCCN)NC(=O)[C@H](CCCCN)NC(=O)[C@@H]1CCCN1)[C@@H](C)CC)[C@@H](C)CC)C(=O)N[C@@H](C)C(=O)N[C@@H](CO)C(=O)N[C@@H](Cc1ccccc1)C(=O)N[C@@H](CO)C(=O)O` [PKKINKLLLRILDKIASFS], the minimum inhibitory concentration (MIC) in assay [7] was determined as 14.6 µM (≈ 32 µg/mL).

On to `CC[C@H](C)[C@H](NC(=O)[C@H](CCCN=C(N)N)NC(=O)[C@H](C)NC(=O)[C@H](C)N)C(=O)N[C@H](C(=O)N[C@@H](CC(C)C)C(=O)N[C@@H](CCCN=C(N)N)C(=O)N[C@@H](CC(C)C)C(=O)N[C@@H](CCCN=C(N)N)C(=O)N[C@@H](Cc1ccccc1)C(=O)N[C@@H](CCCN=C(N)N)C(N)=O)[C@@H](C)CC` [AARIILRLRFR], for which the minimum inhibitory concentration (MIC) was 4 µM (≈ 5.54 µg/mL) in the assay on Escherichia coli K88; 2 µM (≈ 2.77 µg/mL) in the assay on Escherichia coli K99; 2 µM (≈ 2.77 µg/mL) in assay [8]; 4 µM (≈ 5.54 µg/mL) in assay [9]; 4 µM (≈ 5.54 µg/mL) against Escherichia coli 078; 4 µM (≈ 5.54 µg/mL) in assay [10]. Moreover, the minimal inhibitory concentration (MIC) in assay [2] turned out to be 2 µM (≈ 2.77 µg/mL); in assay [11], 4 µM (≈ 5.54 µg/mL); in assay [3], 4 µM (≈ 5.54 µg/mL); in assay [12], 2 µM (≈ 2.77 µg/mL); in assay [5] it was 8 µM (≈ 11.1 µg/mL); in [13] it was 4 µM (≈ 5.54 µg/mL). The MIC against Escherichia coli UB1005 was 4 µM (≈ 5.54 µg/mL).

The compound `CC[C@H](C)[C@H](NC(=O)[C@H](CCCCN)NC(=O)[C@H](CCCCN)NC(=O)[C@H](CCCCN)NC(=O)[C@@H](NC(=O)[C@H](CCCN=C(N)N)NC(=O)[C@@H](NC(=O)[C@H](CC(C)C)NC(=O)[C@H](CC(C)C)NC(=O)[C@H](CCCCN)NC(=O)[C@H](CCSC)NC(=O)[C@@H]1CCCN1)C(C)C)C(C)C)C(=O)NCC(=O)N[C@@H](CC(=O)O)C(=O)N[C@@H](C)C(=O)N[C@@H](CC(C)C)C(=O)N[C@@H](CCC(=O)O)C(=O)N[C@@H](CC(C)C)C(=O)NCC(=O)O` [PMKLLVRVKKKIGDALELG] returned an MIC in assay [7] of no less than 60.7 µM.

For the compound `CC[C@H](C)[C@H](NC(=O)CN)C(=O)N[C@@H](Cc1ccccc1)C(=O)N[C@@H](CO)C(=O)N[C@@H](CC(C)C)C(=O)N[C@H](C(=O)N[C@@H](CCCCN)C(=O)NCC(=O)N[C@@H](C)C(=O)N[C@@H](C)C(=O)N[C@@H](CCCCN)C(=O)N[C@@H](CC(C)C)C(=O)N[C@H](C(=O)N[C@H](C(=O)N[C@@H](CCCCN)C(=O)N[C@H](C(=O)N[C@H](C(=O)N[C@@H](C)C(=O)N[C@@H](CCCCN)C(=O)N[C@@H](CCC(=O)O)C(=O)N[C@@H](C)C(=O)NCC(=O)N[C@@H](CCCCN)C(=O)N[C@H](C(=O)NCC(=O)N[C@@H](CC(C)C)C(=O)N[C@@H](CCC(=O)O)C(=O)N[C@@H](CC(C)C)C(=O)N[C@@H](CCSC)C(=O)N[C@@H](C)C(=O)N[C@H]1CSSC[C@@H](C(=O)O)NC(=O)[C@H](CCC(N)=O)NC(=O)[C@H](CC(N)=O)NC(=O)[C@H]([C@@H](C)O)NC(=O)[C@H](C(C)C)NC(=O)[C@H](CCCCN)NC1=O)[C@@H](C)O)C(C)C)[C@@H](C)O)[C@@H](C)O)[C@@H](C)CC)[C@@H](C)CC` [GIFSLIKGAAKLITKTVAKEAGKTGLELMACKVTNQC], the minimum inhibitory concentration (MIC) is no less than 100 µM in assay [14]; 6.3 µM (≈ 24.2 µg/mL) in assay [15]; 25 µM (≈ 95.9 µg/mL) in assay [12]; 3.1 µM (≈ 11.9 µg/mL) in [16]; 12.5 µM (≈ 47.9 µg/mL) in assay [7].

`CC(C)C[C@H](NC(=O)[C@@H](NC(=O)[C@H](CCC(=O)O)NC(=O)[C@@H](N)CCCN=C(N)N)C(C)C)C(=O)NCC(=O)N[C@@H](Cc1ccc(O)cc1)C(=O)N[C@@H](CCC(=O)O)C(=O)N[C@@H](CCCN=C(N)N)C(=O)N[C@@H](CC(N)=O)C(=O)N[C@@H](CO)C(=O)N[C@@H](Cc1ccc(O)cc1)C(=O)N[C@@H](CCCCN)C(N)=O` [REVLGYERNSYK]: the MIC in [8] was greater than 128 µM; in assay [17], greater than 128 µM; against Candida albicans, greater than 128 µM; against Escherichia coli MG1655 it was no less than 128 µM.

For `CC[C@H](C)[C@H](NC(=O)[C@H](C)NC(=O)[C@@H](NC(=O)[C@H](CCCCN)NC(=O)[C@H](CCCCN)NC(=O)[C@H](Cc1cnc[nH]1)NC(=O)[C@@H](NC(=O)[C@H](CCCCN)NC(=O)[C@H](CS)NC(=O)[C@@H](NC(=O)[C@@H](NC(=O)[C@H](CCCN=C(N)N)NC(=O)[C@@H](NC(=O)[C@H](C)NC(=O)[C@H](CC(C)C)NC(=O)[C@H](CCCCN)NC(=O)[C@@H]1CCCN1)[C@@H](C)CC)[C@@H](C)CC)[C@@H](C)O)[C@@H](C)CC)C(C)C)C(=O)N[C@@H](CO)C(=O)N[C@H](C(=O)O)C(C)C` [PKLAIRITCKIHKKVAISV], the minimal inhibitory concentration (MIC) worked out at 121 µM (≈ 256 µg/mL) in assay [8] and 30.2 µM (≈ 64 µg/mL) in assay [7].

For `NC(=O)CC[C@H](NC(=O)[C@H](Cc1cnc[nH]1)NC(=O)[C@H](CO)NC(=O)[C@H](CCCN=C(N)N)NC(=O)[C@H](Cc1ccccc1)NC(=O)[C@H](Cc1cnc[nH]1)NC(=O)[C@H](CCCN=C(N)N)NC(=O)[C@H](Cc1cnc[nH]1)NC(=O)[C@H](Cc1cnc[nH]1)NC(=O)[C@@H](N)CO)C(=O)N[C@@H](CS)C(=O)N[C@@H](CCCN=C(N)N)C(=O)N[C@@H](CCCN=C(N)N)C(=O)O` [SHHRHFRSHQCRR], the MIC in [14] is 18.3 µM (≈ 32 µg/mL); in assay [18] it was 4.59 µM (≈ 8 µg/mL); in [19], greater than 18.3 µM; in assay [20], greater than 18.3 µM; in assay [21], greater than 18.3 µM; in [12], 18.3 µM (≈ 32 µg/mL). In assay [5], this compound showed an MIC greater than 18.3 µM.

Source of the values: DBAASP.
